# Data from patent publication US11053258B2, “Pyrimidine carboxamides as GSK-3 inhibitors” (BRISTOL-MYERS SQUIBB COMPANY, priority 2016, dated 2021).
# Several values for one entry are separate records, joined by “and”; a condition that tells them apart may be missing. Equal entries are not always repeated. Where two headings read alike, the source gives them in different places.
# What was measured:
# [1] = system: pTau; experiment: pTau assay; format: cell-based
# [2] = target: GSK3β (Homo sapiens, UniProt P49841); experiment: GSK3β kinase assay (Caliper LabChip3000, fluoresceinated peptide substrate); format: biochemical; settings: first value of cell; 250 pM enzyme, 20 uM ATP, 20 hours room temperature; read-out: GSK3β/α (nM): GSK3β IC50
# Chain of GSK3β (P49841 whole entry, species assumed): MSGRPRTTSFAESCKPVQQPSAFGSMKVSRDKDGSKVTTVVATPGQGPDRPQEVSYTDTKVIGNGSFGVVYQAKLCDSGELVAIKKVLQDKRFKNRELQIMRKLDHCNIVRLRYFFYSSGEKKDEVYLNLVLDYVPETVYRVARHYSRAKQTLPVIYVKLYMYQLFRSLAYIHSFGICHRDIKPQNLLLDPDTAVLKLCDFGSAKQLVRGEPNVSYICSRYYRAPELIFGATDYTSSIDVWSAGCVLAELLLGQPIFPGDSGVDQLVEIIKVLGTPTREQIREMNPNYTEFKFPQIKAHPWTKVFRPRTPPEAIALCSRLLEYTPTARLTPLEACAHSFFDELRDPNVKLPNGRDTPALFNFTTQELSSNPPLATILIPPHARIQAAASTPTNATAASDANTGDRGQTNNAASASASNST
# Protocol: (§1) The kinase assay was performed in V-bottom 384-well plates. The final assay volume was 30 μl prepared from 15 μl additions of enzyme, substrates (fluoresceinated peptide FL-KRREILSRRP[ps]ERYR-NH2 and ATP) and test compounds in assay buffer (100 mM HEPES pH 7.4, 10 mM MgCl2, 25 mM Beta-Glycerolphosphate, 0.015% Brij35 and 0.25 mM DTT). The reaction was incubated at room temperature for 20 hours and terminated by adding 45 μl of 35 mM EDTA to each sample. The reaction mixture was analyzed on the Caliper LabChip3000 (Caliper, Hopkinton, Mass.) by electrophoretic separation of the unphosphorylated substrate and phosphorylated product. Inhibition data were calculated by comparison of the no enzyme control reactions for 100% inhibition and vehicle-only reactions for 0% inhibition. The final concentration of reagents in the assay were 250 pM GSK3α or GSK3β, 20 uM ATP, 1.5 uM FL-KRREILSRRP[ps]ERYR-NH2, and 1.6% DMSO. Dose response curves were generated to determine the concentration required to inhibit 50% of the kinase activity (IC50). Compounds were dissolved at 10 mM in dimethylsulfoxide (DMSO) and evaluated at eleven concentrations. IC50 values were derived by non-linear regression analysis.
# [3] = target: GSK3α (Homo sapiens, UniProt P49840); experiment: GSK3α kinase assay (Caliper LabChip3000, fluoresceinated peptide substrate); format: biochemical; settings: second value of cell; 250 pM enzyme, 20 uM ATP, 20 hours room temperature; read-out: GSK3β/α (nM): GSK3α IC50
# Chain of GSK3α (P49840 whole entry, species assumed): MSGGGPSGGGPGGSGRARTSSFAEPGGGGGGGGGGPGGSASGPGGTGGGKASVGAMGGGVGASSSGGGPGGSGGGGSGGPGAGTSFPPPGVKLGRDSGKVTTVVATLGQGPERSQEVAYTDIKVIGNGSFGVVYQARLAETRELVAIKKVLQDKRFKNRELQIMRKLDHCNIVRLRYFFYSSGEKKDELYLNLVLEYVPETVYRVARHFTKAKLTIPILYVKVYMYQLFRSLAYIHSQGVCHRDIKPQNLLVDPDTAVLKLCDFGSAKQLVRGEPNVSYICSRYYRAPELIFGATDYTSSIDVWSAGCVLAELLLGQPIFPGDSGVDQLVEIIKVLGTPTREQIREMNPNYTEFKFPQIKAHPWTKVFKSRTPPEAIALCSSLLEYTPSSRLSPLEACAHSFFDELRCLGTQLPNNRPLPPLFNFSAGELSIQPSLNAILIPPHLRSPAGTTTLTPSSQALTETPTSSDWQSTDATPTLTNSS
# Protocol: as §1
# [4] = rcm bond, 70.0 °C
Structure (SMILES),IC50 [1],IC50 [2],IC50 [3],other results
C[C@@H]1Nc2nccc(n2)C(=O)Nc2cnc(F)cc2N2CCN(CC=CCC1O)CC2 (some centres unmarked),,,,"ring closure, isolated yield ([4]; from C=CCC(O)[C@H](C)Nc1nccc(C(=O)Nc2cnc(F)cc2N2CCN(CC=C)CC2)n1, 18-membered ring, Zhan 1B, ClCH2CH2Cl, 4.78 mM, 1.5 h): 29% and 26%"
"O=C1Nc2cnccc2OCCCCCCNc2nccc1n2 [Example 9, 5-Oxa-3,12-diaza-1(4,2)-pyrimidina-4(3,4)-pyridinacyclododecaphan-2-one]",146 nM,5.2 nM,6.2 nM,
O=C1Nc2cnc(F)cc2N2CCOC(C=CCCCNc3nccc1n3)C2 (centres unmarked),,,,"ring closure, isolated yield ([4]; from C=CCCCNc1nccc(C(=O)Nc2cnc(F)cc2N2CCOC(C=C)C2)n1, 16-membered ring, Zhan 1B (40 mol%), ClCH2CH2Cl, 5.6 mM, 2.0 h): 46%"
"O=C1Nc2cnccc2OCC/C=C/CCCNc2nccc1n2 [Example 17, (E)-5-Oxa-3,13-diaza-1(4,2)-pyrimidina-4(3,4)-pyridinacyclotridecaphan-8-en-2-one]",92 nM,1.3 nM,3.3 nM,
"O=C1Nc2cnc(F)cc2N2CCOC(/C=C/CCCNc3nccc1n3)C2 (centres unmarked) [Example 14, (E)-2^6-Fluoro-3,6-diaza-1(4,2)-morpholina-5(4,2)-pyrimidina-2(4,3)-pyridinacycloundecaphan-10-en-4-one]",627 nM,12.5 nM,20.2 nM,
"O=C1Nc2cnccc2OCCC=CCCNc2nccc1n2 (mixture of isomers) [Example 8, 5-Oxa-3,12-diaza-1(4,2)-pyrimidina-4(3,4)-pyridinacyclododecaphan-8-en-2-one]",634 nM,8.1 nM,8.4 nM,"ring closure, isolated yield ([4]; from C=CCCNc1nccc(C(=O)Nc2cnccc2OCCC=C)n1, 15-membered ring, Zhan 1B (50 mol%), ClCH2CH2Cl, 4.3 mM, 2.0 h): 46%"
"O=C1Nc2cnc(F)cc2N2CCOC(CCCCCNc3nccc1n3)C2 (centres unmarked) [Example 15, 2^6-Fluoro-3,6-diaza-1(4,2)-morphohna-5(4,2)-pyrimidina-2(4,3)-pyridinacycloundecaphan-4-one]",1890 nM,22.3 nM,34 nM,
CC1(C)CC=CCN2CCN(CC2)c2cc(F)ncc2NC(=O)c2ccnc(n2)NC1,,,,"ring closure, isolated yield ([4]; from C=CCN1CCN(c2cc(F)ncc2NC(=O)c2ccnc(NCC(C)(C)CC=C)n2)CC1, 18-membered ring, Zhan 1B, 1.5 h, 2 steps): 34%"
O=C1Nc2cnc(F)cc2N2CCN(CC=CCC3(CC3)CNc3nccc1n3)CC2,,,,"ring closure, isolated yield ([4]; from C=CCN1CCN(c2cc(F)ncc2NC(=O)c2ccnc(NCC3(CC=C)CC3)n2)CC1, 18-membered ring, Zhan 1B, ClCH2CH2Cl, 4.73 mM, 2.0 h): 79%"
O=C1Nc2cnc(F)cc2N2CCN(CC=CCCCNc3nccc1n3)CC2,,,,"ring closure, isolated yield ([4]; from C=CCCCNc1nccc(C(=O)Nc2cnc(F)cc2N2CCN(CC=C)CC2)n1, 18-membered ring, Zhan 1B (20 mol%), ClCH2CH2Cl, 5.64 mM, 2.0 h): 65%"
"O=C1Nc2cnccc2OCCC=CCNc2nccc1n2 (mixture of isomers) [Example 5, 5-Oxa-3,11-diaza-1(4,2)-pyrimidina-4(3,4)-pyridinacycloundecaphan-8-en-2-one]",1500 nM,13.5 nM,12.1 nM,"ring closure, isolated yield ([4]; from C=CCCOc1ccncc1NC(=O)c1ccnc(NCC=C)n1, 14-membered ring, Zhan 1B (50 mol%), ClCH2CH2Cl, 4.55 mM, 2.0 h): 34%"
O=C1Nc2cnc(F)cc2N2CCN(CC=CCC(O)CNc3nccc1n3)CC2 (centres unmarked),,,,"ring closure, isolated yield ([4]; from C=CCC(O)CNc1nccc(C(=O)Nc2cnc(F)cc2N2CCN(CC=C)CC2)n1, 18-membered ring, Zhan 1B (30 mol%), ClCH2CH2Cl, 5.33 mM, 4.0 h): 50%"
"O=C1Nc2cnc(F)cc2N2CCN(C/C=C/CCCNc3nccc1n3)CC2 (single isomer, unassigned) [Example 23, (E)-2^6-fluoro-3,6-diaza-5(4,2)-pyrimidina-1(1,4)-piperazina-2(4,3)-pyridinacyclododecaphan-10-en-4-one]",18 nM,0.5 nM,0.6 nM,
"O=C1Nc2cnccc2OCCCCCNc2nccc1n2 [Example 6, 5-Oxa-3,11-diaza-1(4,2)-pyrimidina-4(3,4)-pyridinacycloundecaphan-2-one]",910 nM,28.6 nM,21.2 nM,
"O=C1Nc2cnccc2OCCCCCCCNc2nccc1n2 [Example 18, 5-Oxa-3,13-diaza-1(4,2)-pyrimidina-4(3,4)-pyridinacyclotridecaphan-2-one]",262 nM,3.1 nM,6.7 nM,
O=C1Nc2cnccc2OCCC=CCCCNc2nccc1n2,,,,"ring closure, isolated yield ([4]; from C=CCCCNc1nccc(C(=O)Nc2cnccc2OCCC=C)n1, 16-membered ring, Zhan 1B (30 mol%), ClCH2CH2Cl, 5.57 mM, 2.0 h): 23%"

# More lines, main results first:
IC50 [1],IC50 [2],IC50 [3],Structure (SMILES),other results
2660 nM,29 nM,30.4 nM,"O=C1Nc2cnc(F)cc2N2CCN(C/C=C\CCC(O)CNc3nccc1n3)CC2 (centres unmarked) [Example 29, (Z)-2^6-fluoro-8-hydroxy-3,6-diaza-5(4,2)-pyrimidina-1(1,4)-piperazina-2(4,3)-pyridinacyclotridecaphan-11-en-4-one]",
1870 nM,14.7 nM,17.5 nM,"O=C1Nc2cnc(F)cc2N2CCN(CC=CCCC(O)CNc3nccc1n3)CC2 (single isomer, unassigned) [Example 28, (E)-2^6-fluoro-8-hydroxy-3,6-diaza-5(4,2)-pyrimidina-1(1,4)-piperazina-2(4,3)-pyridinacyclotridecaphan-11-en-4-one]","ring closure, isolated yield ([4]; from C=CCCC(O)CNc1nccc(C(=O)Nc2cnc(F)cc2N2CCN(CC=C)CC2)n1, 19-membered ring, Zhan 1B (30 mol%), ClCH2CH2Cl, 5.17 mM, 3.0 h): 22% and 13%"
1640 nM,12.5 nM,21.1 nM,"O=C1Nc2cnc(F)cc2N2CCN(C/C=C\CC3(CC3)CNc3nccc1n3)CC2 [Example 44, (Z)-6′-fluorospiro[cyclopropane-1,8′-3,6-diaza-5(4,2)-pyrimidina-1(1,4)-piperazina-2(4,3)-pyridinacyclododecaphanen]-10′-en-4′-one]",
404 nM,7.3 nM,17 nM,"C[C@@H]1Nc2nccc(n2)C(=O)Nc2cnc(F)cc2N2CCN(C/C=C/C[C@@H]1O)CC2 [Example 37, (7S,8S,E)-2^6-fluoro-8-hydroxy-7-methyl-3,6-diaza-5(4,2)-pyrimidina-1(1,4)-piperazina-2(4,3)-pyridinacyclododecaphan-10-en-4-one]",
164 nM,3.3 nM,4.3 nM,"O=C1Nc2cnc(F)cc2N2CCN(C/C=C/CC(O)CNc3nccc1n3)CC2 (centres unmarked) [Example 26, (E)-2^6-fluoro-8-hydroxy-3,6-diaza-5(4,2)-pyrimidina-1(1,4)-piperazina-2(4,3)-pyridinacyclododecaphan-10-en-4-one]",
96 nM,1.4 nM,3.2 nM,"CC1(O)CCCCCOc2ccncc2NC(=O)c2ccnc(n2)NC1 (centres unmarked) [Example 42, 11-Hydroxy-11-methyl-5-oxa-3,13-diaza-1(4,2)-pyrimidina-4(3,4)-pyridinacyclotridecaphan-2-one]",
178 nM,,15.5 nM,"O=C1Nc2cnc(F)cc2N2CCN(C/C=C/CC(F)CNc3nccc1n3)CC2 (centres unmarked) [Example 30, (E)-2^6,8-Difluoro-3,6-diaza-5(4,2)-pyrimidina-1(1,4)-piperazina-2(4,3)-pyridinacyclododecaphan-10-en-4-one]",
202 nM,10.8 nM,18.5 nM,"C[C@@H]1Nc2nccc(n2)C(=O)Nc2cnc(F)cc2N2CCN(C/C=C/CC1O)CC2 (single isomer, unassigned) [Example 36]",
124 nM,2 nM,3.6 nM,"O=C1Nc2cnc(F)cc2N2CCN(CCCCCCNc3nccc1n3)CC2 [Example 24, 2^6-Fluoro-3,6-diaza-5(4,2)-pyrimidina-1(1,4)-piperazina-2(4,3)-pyridinacyclododecaphan-4-one]",
372 nM,4.1 nM,8 nM,"CC1(O)C/C=C/CN2CCN(CC2)c2cc(F)ncc2NC(=O)c2ccnc(n2)NC1 (centres unmarked) [Example 39, (E)-2^6-Fluoro-8-hydroxy-8-methyl-3,6-diaza-5(4,2)-pyrimidina-1(1,4)-piperazina-2(4,3)-pyridinacyclododecaphan-10-en-4-one]",
80 nM,,2 nM,"CC1(C)C/C=C/CN2CCN(CC2)c2cc(F)ncc2NC(=O)c2ccnc(n2)NC1 [Example 32, (E)-2^6-Fluoro-8,8-dimethyl-3,6-diaza-5(4,2)-pyrimidina-1(1,4)-piperazina-2(4,3)-pyridinacyclododecaphan-10-en-4-one]",
